Measurements taken from US6881741B2 (ViroChem Pharma Inc., priority 2001, dated 2005).
pIC50: −log10 of the molar value. Where a name gives a salt, the structure may show the parent alone.

What follows are compounds tested against recombinant HCV NS5B (HCV RNA-dependent RNA polymerase) (Hepatitis C virus genotype 1b, UniProt P26663) (assay: biochemical). Details: HCV polymerase activity, list of compounds of Example 27; read-out: IC50 (polymerase activity).
Sequence of recombinant HCV NS5B (HCV RNA-dependent RNA polymerase) (P26663 2420-3010 limits assumed): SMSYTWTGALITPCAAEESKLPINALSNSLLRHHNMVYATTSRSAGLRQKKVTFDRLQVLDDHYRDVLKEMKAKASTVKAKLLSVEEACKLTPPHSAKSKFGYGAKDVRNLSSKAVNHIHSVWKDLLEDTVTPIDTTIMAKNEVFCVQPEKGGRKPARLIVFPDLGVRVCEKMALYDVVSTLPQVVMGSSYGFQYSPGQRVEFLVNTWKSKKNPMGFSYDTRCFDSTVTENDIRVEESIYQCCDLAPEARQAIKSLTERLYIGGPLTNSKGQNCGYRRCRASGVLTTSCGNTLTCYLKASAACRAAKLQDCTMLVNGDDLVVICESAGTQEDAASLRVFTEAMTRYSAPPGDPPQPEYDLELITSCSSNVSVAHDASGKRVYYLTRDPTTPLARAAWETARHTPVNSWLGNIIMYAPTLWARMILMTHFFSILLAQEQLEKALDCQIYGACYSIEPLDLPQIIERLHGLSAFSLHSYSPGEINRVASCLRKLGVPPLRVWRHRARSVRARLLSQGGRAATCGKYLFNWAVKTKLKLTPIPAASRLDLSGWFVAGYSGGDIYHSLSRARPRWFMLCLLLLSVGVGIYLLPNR
In the case of `CCCC1CCC(C(=O)N(c2cc(-c3ccccc3)sc2C(=O)O)C(C)C)CC1` (stereo not drawn) [Compound 527, 3-[ISOPROPYL-(4-PROPYL- CYCLOHEXANECARBONYL)-AMINO]-5- PHENYL-THIOPHENE-2-CARBOXYLIC ACID], the pIC50 was greater than 5.30. Compound `CCc1ccc(-c2cc(N(C(=O)c3ccc(C)cc3O)C(C)C)c(C(=O)O)s2)cc1` [Compound 501, 5-(4-ETHYL-PHENYL)-3-[(2-HYDROXY-4- METHYL-BENZOYL)-ISOPROPYL-AMINO]- THIOPHENE-2-CARBOXYLIC ACID] has a pIC50 greater than 5.30. In the case of `O=C(O)c1sc(-c2ccccc2)cc1N(C(=O)c1ccc(Cl)cc1Cl)C1CCNC1` (stereo not drawn) [Compound 503, 3-[(2,4-DICHLORO-BENZOYL)- PYRROLIDIN-3-YL-AMINO]-5-PHENYL- THIOPHENE-2-CARBOXYLIC ACID], the pIC50 was 4.70 to 5.30. Compound `CC(C)N(C(=O)C1CCC(Cl)CC1)c1cc(-c2ccccc2)sc1C(=O)O` (stereo not drawn) [Compound 532, 3-[(4-CHLORO- CYCLOHEXANECARBONYL)-ISOPROPYL- AMINO]-5-PHENYL-THIOPHENE-2- CARBOXYLIC ACID] has a pIC50 greater than 5.30. Work on `NC1CCC(N(C(=O)c2ccc(Cl)cc2Cl)c2cc(-c3ccccc3)sc2C(=O)O)CC1` (stereo not drawn) [Compound 528, 4-[(2-CARBOXY-5-PHENYL-THIOPHEN-3- YL(-(2,4-DICHLORO-BENZOYL)-AMINO]- CYCLOHEXYL-AMMONIUM; TRIFLUORO- ACETATE] yielded a pIC50 greater than 5.30. In the case of `CCC(=O)N(Cc1ccc(C(C)(C)C)cc1)c1cc(-c2ccccc2)sc1C(=O)O` [Compound 417, 3-[(4-TERT-BUTYL-BENZYL)-PROPIONYL- AMINO]-5-PHENYL-THIOPHENE-2- CARBOXYLIC ACID], the pIC50 was 4.70 to 5.30. For `CC(C)N(C(=O)C1=CC[C@@H](C)CC1)c1cc(-c2ccccc2)sc1C(=O)O` [Compound 562, 3-[(4S)-ISOPROPYL-(4-METHYL- CYCLOHEX-1-ENECARBONYL)-AMINO]-5- PHENYL-THIOPHENE-2-CARBOXYLIC ACID], the pIC50 was greater than 5.30. For `Cc1ccc(S(=O)(=O)Nc2cc(-c3ccccc3)sc2C(=O)NCC(=O)O)cc1` [Compound 551, {[5-PHENYL-3-(TOLUENE-4- SULFONYLAMINO)-THIOPHENE-2- CARBONYL]-AMINO}-ACETIC ACID], the pIC50 was 4.70 to 5.30. `CC(C)N(C(=O)C12CC3CC(CC(C3)C1)C2)c1cc(-c2ccccc2)sc1C(=O)O` [Compound 424, 3-[(ADAMANTANE-1-CARBONYL)- ISOPROPYL-AMINO]-5-PHENYL- THIOPHENE-2-CARBOXYLIC ACID] gave a pIC50 of less than 4.70. In the case of `O=C(O)c1sc(-c2ccccc2)cc1N(C(=O)c1ccc(Cl)cc1Cl)C1CC[C@@H](C(=O)O)C1` (stereo in doubt) [Compound 547, 3-[(3-CARBOXY-CYCLOPENTYL)-(2,4- DICHLORO-BENZOYL)-AMINO]-5- PHENYL-THIOPHENE-2-CARBOXYLIC ACID], the pIC50 was greater than 5.30. `CC(C[NH3+])N(C(=O)c1ccc(Cl)cc1Cl)c1cc(-c2ccccc2)sc1C(=O)O` (stereo not drawn) [Compound 546, 2-[(2-CARBOXY-5-PHENYL-THIOPHEN-3- YL)-(2,4-DICHLORO-BENZOYL)-AMINO]- PROPYL-AMINE TRIFLUOROACETIC ACID SALT] showed a pIC50 greater than 5.30.

Same assay, conditions: related polymerase activity (Example 27 list); read-out: IC50
`Cc1ccc(C(=O)N(c2cc(-c3cccc(C)c3)sc2C(=O)O)C(C)C)cc1` [Compound 305, 3-[ISOPROPYL-(4-METHYL-BENZOYL)- AMINO]-5-M-TOLYL-THIOPHENE-2- CARBOXYLIC ACID] was tested, and the pIC50 was greater than 5.30. `CC(C)CCC(=O)N(C)c1cc(-c2ccccc2)sc1C(=O)O` [Compound 390, 3-[METHYL-(4-METHYL-PENTANOYL)- AMINO]-5-PHENYL-THIOPHENE-2- CARBOXYLIC ACID] gave a pIC50 of 4.70 to 5.30. Compound `Cc1ccc(C(=O)N(C)c2cc(-c3cccc(Cl)c3)sc2C(=O)O)cc1` [Compound 269, 5-(3-CHLORO-PHENYL)-3-[METHYL-(4-METHYL-BENZOYL)-AMINO]-THIOPHENE-2-CARBOXYLIC ACID] has a pIC50 greater than 5.30. `O=C(O)c1sc(-c2ccccc2)cc1NS(=O)(=O)c1cc(OCC(F)(F)F)ccc1OCC(F)(F)F` [Compound 176, 3-[2,5-BIS-(2,2,2-TRIFLUORO-ETHOXY)-BENZENESULFONYLAMINO]-5-PHENYL-THIOPHENE-2-CARBOXYLIC ACID] was tested, and the pIC50 was 4.70 to 5.30. Work on `Cc1ccccc1S(=O)(=O)Nc1cc(/C=C/c2ccccc2)sc1C(=O)O` [Compound 108, 5-STYRYL-3-(TOLUENE-2-SULFONYLAMINO)-THIOPHENE-2-CARBOXYLIC ACID] yielded a pIC50 greater than 5.30. Work on `CC(=O)c1ccc(-c2cc(NS(=O)(=O)c3ccccc3C)c(C(=O)O)s2)cc1` [Compound 166, 5-(4-ACETYL-PHENYL)-3-(TOLUENE-2-SULFONYLAMINO)-THIOPHENE-2-CARBOXYLIC ACID] yielded a pIC50 greater than 5.30. For `CC(=O)N(Cc1ccc(Cl)cc1)c1cc(-c2ccccc2)sc1C(=O)O` [Compound 241, 3-[ACETYL-(4-CHLORO-BENZYL)-AMINO]-5-PHENYL-THIOPHENE-2-CARBOXYLIC ACID], the pIC50 was 4.70 to 5.30. `Cc1ccccc1S(=O)(=O)Nc1cc(-c2ccc(Cl)c(Cl)c2)sc1C(=O)O` [Compound 85, 5-(3,4-DICHLORO-PHENYL)-3-(TOLUENE-2-SULFONYLAMINO)-THIOPHENE-2-CARBOXYLIC ACID] gave a pIC50 of 4.70 to 5.30. Compound `O=C(O)c1sc(-c2ccccc2)cc1NCc1ccc(Cl)cc1Cl` [Compound 48, 3-(2,4-DICHLORO-BENZYLAMINO)-5-PHENYL-THIOPHENE-2-CARBOXYLIC ACID] has a pIC50 greater than 5.30. For `CC(=O)Nc1nc(C)c(S(=O)(=O)Nc2cc(-c3ccccc3)sc2C(=O)O)s1` [Compound 139, 3-(2-ACETYLAMINO-4-METHYL-THIAZOLE-5-SULFONYLAMINO)-5-PHENYL-THIOPHENE-2-CARBOXYLIC ACID], the pIC50 was 4.70 to 5.30. `CC(=O)c1ccc(-c2cc(NS(=O)(=O)c3ccc(Cl)cc3)c(C(=O)O)s2)cc1` [Compound 238, 5-(4-ACETYL-PHENYL)-3-(4-CHLORO-BENZENESULFONYLAMINO)-THIOPHENE-2-CARBOXYLIC ACID] was tested, and the pIC50 was greater than 5.30. With `O=C(O)c1sc(-c2ccccc2)cc1N(Cc1ccc(-c2cccc(C(F)(F)F)c2)o1)C(=O)c1ccc(Cl)cc1Cl` [Compound 4, 3-{(2,4-DICHLORO-BENZOYL)-[5-(3-TRIFLUOROMETHYL-PHENYL)-FURAN-2-YLMETHYL]-AMINO}-5-PHENYL-THIOPHENE-2-CARBOXYLIC ACID] the pIC50 was greater than 5.30. In the case of `O=C(O)c1sc(-c2ccccc2)cc1NS(=O)(=O)c1ccc(Br)cc1` [Compound 39, 3-(4-BROMO-BENZENESULFONYLAMINO)-5-PHENYL-THIOPHENE-2-CARBOXYLIC ACID], the pIC50 was greater than 5.30. `CC(=O)c1ccc(-c2cc(N(C(=O)c3ccc(Cl)cc3Cl)C(C)C)c(C(=O)O)s2)s1` [Compound 358, 5′-ACETYL-4-[(2,4-DICHLORO-BENZOYL)- ISOPROPYL-AMINO]-[2,2′]BITHIOPHENYL- 5-CARBOXYLIC ACID] showed a pIC50 greater than 5.30. For `COC(=O)c1sc(-c2ccccc2)cc1N(C(=O)c1ccc(Cl)cc1Cl)C(C)C` [Compound 287, 3-[(2,4-DICHLORO-BENZOYL)-ISOPROPYL-AMINO]-5-PHENYL-THIOPHENE-2-CARBOXYLIC ACID METHYL ESTER], the pIC50 was 4.70 to 5.30. Work on `Cc1ccc(S(=O)(=O)N(c2cc(-c3ccccc3)sc2C(=O)O)C(C)C)c(C)c1` [Compound 240, 3-[(2,4-DIMETHYL-BENZENESULFONYL)-ISOPROPYL-AMINO]-5-PHENYL-THIOPHENE-2-CARBOXYLIC ACID] yielded a pIC50 of 4.70 to 5.30. `Cc1ccc(C(=O)N(C)c2cc(-c3ccccc3)sc2C(=O)O)cc1[N+](=O)[O-]` [Compound 257, 3-[METHYL-(4-METHYL-3-NITRO-BENZOYL)-AMINO]-5-PHENYL-THIOPHENE-2-CARBOXYLIC ACID] gave a pIC50 of 4.70 to 5.30. `Cc1ccccc1S(=O)(=O)Nc1cc(-c2cc(NS(=O)(=O)c3ccccc3C)c(C(=O)O)s2)sc1C(=O)O` [Compound 161, 4,4′-BIS-(TOLUENE-2-SULFONYLAMINO)-[2,2′]BITHIOPHENYL-5,5′-DICARBOXYLIC ACID] gave a pIC50 greater than 5.30. Work on `CCOC(=O)c1c(S(=O)(=O)Nc2cc(-c3ccccc3)sc2C(=O)O)c(-c2ccccc2)n(-c2ccccc2)c1C` [Compound 155, 4-(2-CARBOXY-5-PHENYL-THIOPHEN-3-YLSULFAMOYL)-2-METHYL-1,5-DIPHENYL-1H-PYRROLE-3-CARBOXYLIC ACID ETHYL ESTER] yielded a pIC50 greater than 5.30. With `CC(C)N(C(=O)c1ccc(Cl)cc1Cl)c1cc(-c2cccc(Cl)c2)sc1C(=O)O` [Compound 294, 5-(3-CHLORO-PHENYL)-3-[(2,4-DICHLORO-BENZOYL)-ISOPROPYL-AMINO]-THIOPHENE-2-CARBOXYLIC ACID] the pIC50 was greater than 5.30. Compound `O=C(O)c1sc(-c2ccccc2)cc1NS(=O)(=O)c1ccc(Cl)c(Cl)c1` [Compound 34, 3-(3,4-DICHLORO-BENZENESULFONYLAMINO)-5-PHENYL-THIOPHENE-2-CARBOXYLIC ACID] has a pIC50 of 4.70 to 5.30. Work on `COc1ccc(-c2cc(NS(=O)(=O)c3ccccc3C)c(C(=O)O)s2)cc1` [Compound 122, 5-(4-METHOXY-PHENYL)-3-(TOLUENE-2-SULFONYLAMINO)-THIOPHENE-2-CARBOXYLIC ACID] yielded a pIC50 greater than 5.30. `COc1cccc(-c2cc(NS(=O)(=O)c3ccccc3C)c(C(=O)O)s2)c1` [Compound 123, 5-(3-METHOXY-PHENYL)-3-(TOLUENE-2-SULFONYLAMINO)-THIOPHENE-2-CARBOXYLIC ACID] gave a pIC50 greater than 5.30. `Cc1ccc(S(=O)(=O)Nc2cc(-c3ccc(C#N)cc3)sc2C(=O)O)c(C)c1` [Compound 288, 5-(4-CYANO-PHENYL)-3-(2,4-DIMETHYL-BENZENESULFONYLAMINO)-THIOPHENE-2-CARBOXYLIC ACID] showed a pIC50 greater than 5.30. Work on `Cc1ccc(S(=O)(=O)Nc2cc(-c3ccc(C(=O)O)cc3)sc2C(=O)O)c(C)c1` [Compound 332, 5-(4-CARBOXY-PHENYL)-3-(2,4-DIMETHYL- BENZENESULFONYLAMINO)- THIOPHENE-2- CARBOXYLIC ACID] yielded a pIC50 greater than 5.30. Work on `CCc1ccc(-c2cc(NS(=O)(=O)c3ccccc3C)c(C(=O)O)s2)cc1` [Compound 232, 5-(4-ETHYL-PHENYL)-3-(TOLUENE-2-SULFONYLAMINO)-THIOPHENE-2-CARBOXYLIC ACID] yielded a pIC50 greater than 5.30. With `CC(C)N(C(=O)c1ccccc1Cl)c1cc(-c2ccccc2)sc1C(=O)O` [Compound 218, 3-[(2-CHLORO-BENZOYL)-ISOPROPYL-AMINO]-5-PHENYL-THIOPHENE-2-CARBOXYLIC ACID] the pIC50 was 4.70 to 5.30. Work on `O=C(O)c1sc(-c2ccccc2)cc1NS(=O)(=O)c1cccs1` [Compound 23, 5-PHENYL-3-(THIOPHENE-2-SULFONYLAMINO)-THIOPHENE-2-CARBOXYLIC ACID] yielded a pIC50 greater than 5.30.
